For experiment [1], the system named is β-catenin/Tcf-4. The experiment can be described thus: cells. In kind it is cell-based. As to conditions: Homo sapiens, 24 hours of incubation with compound, ratio Firefly/Renilla luciferase. A digest of the protocol:
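SW480-derived lines with integrated reporters (Tcf-4-driven firefly luciferase; SV40 firefly as specificity control; SV40 Renilla for cell number/toxicity), treated 24 hours with titrated compounds, final 0.316% DMSO. Dual-luciferase read-out; firefly/Renilla ratio as % of control, duplicate plates, IC50 (nM) from curve fit.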

In experiment [2] the test system is SV40-Luc. The experiment can be described thus: SV40-Luc control luciferase reporter assay, SV 5A8 cell line (SV40-Luc and SV40-R-Luc), control for non-specific inhibitors. In kind it is cell-based, human. The note with it: Homo sapiens, SV5A8, 24 h, SV 5A8 cells derived from SW480; 24 hours of incubation with compound; ratio Firefly/Renilla luciferase. In a few lines: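 Read-out is the firefly-to-Renilla luminescence ratio, expressed as % of control and averaged over duplicate plates, from which IC50s were fitted. Renilla under SV40 normalises for cell number and toxicity. SW480-derived lines carried integrated Tcf-4- or SV40-driven firefly reporters; compound exposure lasted 24 h.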
In general terms: A reporter such as luciferase makes a cellular process visible.

Where [3] appears, read: SW480, 24 h, Tcf 33.13 cells derived from SW480.
[4] abbreviates: Tcf22C11, 24 h, Tcf 22C11 cells derived from SW480.

By IC50 is commonly meant the midpoint of a concentration-inhibition curve. Turning to `Cc1ccc2c(NCc3ccc(NC(=O)c4ccc(Cl)nc4)cc3)nc(N(C)C)nc2c1` [Example 242, 6-chloro-N-[4-({[2-(dimethylamino)-7-methylquinazolin-4-yl]amino}methyl)phenyl]nicotinamide], the IC50 in experiment [1] (setting [3]) was 336 nM; in experiment [1] (setting [4]), 318 nM; in experiment [2], above 5590 nM.

Turning to `Cc1ccc2c(NCc3ccc(NC(=O)C4CCN(C)CC4)cc3)nc(N(C)C)nc2c1` [Example 243, N-[4-({[2-(dimethylamino)-7-methylquinazolin-4-yl]amino}methyl)phenyl]-1-methylpiperidine-4-carboxamide], the results for the half-inhibitory concentration (IC50) in experiment [1] (setting [3]), in experiment [1] (setting [4]) and in experiment [2] were 1680 nM, 1920 nM and above 23100 nM, respectively.

As for `Cc1ccc2c(NCc3ccc(NC(=O)C4CCN(CC(C)C)CC4)cc3)nc(N(C)C)nc2c1` [Example 244, N-[4-({[2-(dimethylamino)-7-methylquinazolin-4-yl]amino}methyl)phenyl]-1-isobutylpiperidine-4-carboxamide], the concentration for half-maximal inhibition (IC50) in experiment [1] (setting [3]) is 962 nM; in experiment [1] (setting [4]), 650 nM; in experiment [2] it was above 10500 nM.

As for `Cc1ccc2c(NCc3ccc(NC(=O)C4CCN(C5CCCCC5)CC4)cc3)nc(N(C)C)nc2c1` [Example 245, 1-cyclohexyl-N-[4-({[2-(dimethylamino)-7-methylquinazolin-4-yl]amino}methyl)phenyl]piperidine-4-carboxamide], the IC50 was 809 nM in experiment [1] (setting [3]), 754 nM in experiment [1] (setting [4]) and above 9990 nM in experiment [2].

Regarding `Cc1ccc2c(NCc3ccc(NC(=O)C4CCN(Cc5ccco5)CC4)cc3)nc(N(C)C)nc2c1` [Example 246, N-[4-({[2-(dimethylamino)-7-methylquinazolin-4-yl]amino}methyl)phenyl]-1-(2-furylmethyl)piperidine-4-carboxamide], the concentration for half-maximal inhibition (IC50) in experiment [1] (setting [3]) was 1930 nM; in experiment [1] (setting [4]) it was 1830 nM; in experiment [2], above 20100 nM.

For `Cc1ccc(CN2CCC(C(=O)Nc3ccc(CNc4nc(N(C)C)nc5cc(C)ccc45)cc3)CC2)cc1` [Example 247, N-[4-({[2-(dimethylamino)-7-methylquinazolin-4-yl]amino}methyl)phenyl]-1-(4-methylbenzyl)piperidine-4-carboxamide], the figures for the concentration for half-maximal inhibition (IC50) in experiment [1] (setting [3]), in experiment [1] (setting [4]) and in experiment [2] were 467 nM, 539 nM and above 4200 nM, respectively.

For the compound `Cc1ccc2c(NCc3ccc(NC(=O)C4CCN(Cc5ncc[nH]5)CC4)cc3)nc(N(C)C)nc2c1` [Example 248, N-[4-({[2-(dimethylamino)-7-methylquinazolin-4-yl]amino}methyl)phenyl]-1-(1H-imidazol-2-ylmethyl)piperidine-4-carboxamide], the concentration for half-maximal inhibition (IC50) in experiment [1] (setting [3]), in experiment [1] (setting [4]) and in experiment [2] was above 20100 nM each time.

For the compound `CCCCN1CCC(C(=O)Nc2ccc(CNc3nc(N(C)C)nc4cc(C)ccc34)cc2)CC1` [Example 249, 1-butyl-N-[4-({[2-(dimethylamino)-7-methylquinazolin-4-yl]amino}methyl)phenyl]piperidine-4-carboxamide], the concentration for half-maximal inhibition (IC50) in experiment [1] (setting [3]) was 1170 nM; in experiment [1] (setting [4]) it was 1480 nM; in experiment [2] it was above 10500 nM.

Regarding `COc1ccc(CN2CCC(C(=O)Nc3ccc(CNc4nc(N(C)C)nc5cc(C)ccc45)cc3)CC2)cc1` [Example 250, N-[4-({[2-(dimethylamino)-7-methylquinazolin-4-yl]amino}methyl)phenyl]-1-(4-methoxybenzyl)piperidine-4-carboxamide], the IC50 in experiment [1] (setting [3]) is 213 nM; in experiment [1] (setting [4]), 373 nM; in experiment [2], above 9280 nM.

On to `Cc1ccc2c(NCc3ccc(NC(=O)C4CCN(Cc5ccc(F)cc5)CC4)cc3)nc(N(C)C)nc2c1` [Example 251, N-[4-({[2-(dimethylamino)-7-methylquinazolin-4-yl]amino}methyl)phenyl]-1-(4-fluorobenzyl)piperidine-4-carboxamide], for which the IC50 is 215 nM in experiment [1] (setting [3]), 262 nM in experiment [1] (setting [4]) and above 8340 nM in experiment [2].

With `Cc1ccc2c(NCc3ccc(NC(=O)C4CCN(Cc5ccccc5F)CC4)cc3)nc(N(C)C)nc2c1` [Example 252, N-[4-({[2-(dimethylamino)-7-methylquinazolin-4-yl]amino}methyl)phenyl]-1-(2-fluorobenzyl)piperidine-4-carboxamide], the IC50 in experiment [1] (setting [3]) was 332 nM; in experiment [1] (setting [4]), 568 nM; in experiment [2], above 8340 nM.

With `Cc1ccc2c(NCc3ccc(NC(=O)C4CCN(Cc5ccc(Cl)cc5)CC4)cc3)nc(N(C)C)nc2c1` [Example 253, 1-(4-chlorobenzyl)-N-[4-({[2-(dimethylamino)-7-methylquinazolin-4-yl]amino}methyl)phenyl]piperidine-4-carboxamide], the values for the concentration for half-maximal inhibition (IC50) in experiment [1] (setting [3]), in experiment [1] (setting [4]) and in experiment [2] were 255 nM, 390 nM and above 4060 nM, respectively.

Take `Cc1ccc2c(NCc3ccc(NC(=O)C4CCN(Cc5ccc(F)cc5F)CC4)cc3)nc(N(C)C)nc2c1` [Example 254, 1-(2,4-difluorobenzyl)-N-[4-({[2-(dimethylamino)-7-methylquinazolin-4-yl]amino}methyl)phenyl]piperidine-4-carboxamide]: the results for the half-maximal inhibitory concentration (IC50) in experiment [1] (setting [3]), in experiment [1] (setting [4]) and in experiment [2] were 85 nM, 168 nM and above 4590 nM, respectively.

`Cc1ccc2c(NCc3ccc(NC(=O)C4CCN(Cc5ccncc5)CC4)cc3)nc(N(C)C)nc2c1` [Example 257, N-[4-({[2-(dimethylamino)-7-methylquinazolin-4-yl]amino}methyl)phenyl]-1-(pyridin-4-ylmethyl)piperidine-4-carboxamide]: the values for the concentration for half-maximal inhibition (IC50) in experiment [1] (setting [3]), in experiment [1] (setting [4]) and in experiment [2] were 906 nM, 1190 nM and above 8080 nM, respectively.

In the case of `Cc1ccc2c(NCc3ccc(NC(=O)C4CCN(Cc5ccc(F)cc5Cl)CC4)cc3)nc(N(C)C)nc2c1` [Example 258, 1-(2-chloro-4-fluorobenzyl)-N-[4-({[2-(dimethylamino)-7-methylquinazolin-4-yl]amino}methyl)phenyl]piperidine-4-carboxamide], the IC50 is 215 nM in experiment [1] (setting [3]), 521 nM in experiment [1] (setting [4]) and above 7890 nM in experiment [2].

Turning to `Cc1ccc2c(NCc3ccc(NC(=O)C4CCN(Cc5ccc(Cl)nc5)CC4)cc3)nc(N(C)C)nc2c1` [Example 259, 1-[(6-chloropyridin-3-yl)methyl]-N-[4-({[2-(dimethylamino)-7-methylquinazolin-4-yl]amino}methyl)phenyl]piperidine-4-carboxamide], the concentration for half-maximal inhibition (IC50) in experiment [1] (setting [3]) was 415 nM; in experiment [1] (setting [4]), 573 nM; in experiment [2], above 8100 nM.

Take `Cc1ccc2c(NCc3ccc(NC(=O)C4CCN(Cc5c(F)cc(F)cc5F)CC4)cc3)nc(N(C)C)nc2c1` [Example 260, N-[4-({[2-(dimethylamino)-7-methylquinazolin-4-yl]amino}methyl)phenyl]-1-(2,4,6-trifluorobenzyl)piperidine-4-carboxamide]: the half-inhibitory concentration (IC50) in experiment [1] (setting [3]) is 203 nM; in experiment [1] (setting [4]), 215 nM; in experiment [2] it was above 7870 nM.

Take `Cc1ccc2c(NCc3ccc(NC(=O)C4CCN(Cc5cccc(F)c5)CC4)cc3)nc(N(C)C)nc2c1` [Example 261, N-[4-({[2-(dimethylamino)-7-methylquinazolin-4-yl]amino}methyl)phenyl]-1-(3-fluorobenzyl)piperidine-4-carboxamide]: the IC50 in experiment [1] (setting [3]) is 328 nM; in experiment [1] (setting [4]), 347 nM; in experiment [2], above 4170 nM.

Source of the values: US20090004185A1, “AMINO-SUBSTITUTED QUINAZOLINE DERIVATIVES AS INHIBITORS OF BETA-CATENIN/TCF-4 PATHWAY AND CANCER TREATMENT AGENTS” (WYETH, priority 2007, published 2009).
